The test system of data set [1] is Atrial natriuretic factor (ANF) expression, C2C12 cells. The data set can be described thus: ANF test (ANF promoter luciferase reporter) in C2C12 cells. It counts as cell-based, murine. Set-up: key to Evaluation (luminescence in relation to the blank): −: decrease of luminescence compared to the blank value; +: measurable increase; ++: at least 1.5-fold increase; +++: at least 2-fold increase. The following applies: for Evaluation (luminescence in relation to the blank): C2C12 cells (*), compound 1 μM in DMSO, relative to DMSO blank. The source says:
(§1) Atrial natriuretic factor (ANF) or atrial natriuretic peptide (ANP) is a cyclic peptide hormone made up of 28 amino acids, which is predominantly emitted by the muscle cells (myocytes) of the atrium of the heart. It is stored in the atrium as a pro-hormone made of 126 amino acids and is cleaved by serine protease corine into an N-terminal part and the biologically active ANF, which is often used as a cardiac-specific marker protein. In cell differentiation measurements, i.e. in determining the extent to which certain cells have become “cardiac cell-like” by differentiation, often a reporter gene located downstream of the ANF gene is used, as it expression product is easier to detect than the concentration of ANF in a cellular culture, for example, a luciferase gene. Luciferase in an enzyme which catalyzes the oxidation of a luminescent substrate (luciferine). While that happens, light is emitted, and the intensity of that light is correlated with the expression level of ANF and can therefore serve as a measure of ANF expression.
(§2) Initial attempts of ANF expression screenings were performed with P19 cells, i.e. murine embryonal carcinoma cells obtained from the ATCC, or C2C12 cells, i.e. a murine myoblast cell line, as models. In preparation, a plasmid was first constructed by amplifying a gene fragment containing a rat ANF promoter region and subcloning it into the PCL3-BV luciferase reporter plasmid of Promega. The P19 cells were temporarily transfected with said plasmid and cultured in Modified Eagle's Medium alpha (MEM-α) with 7.5% neonatal calf serum and 2.5% fetal bovine serum at 37° C. under 5% CO2 in monolayers for 8 days, during which the medium was exchanged three times. The respective compounds were added at about 60% confluence in DMSO as solvents at a concentration of 1 μM or DMSO alone (as a blank). The luminescence of the samples was measured with a Perkin Elmer Victor V 1420 Multilabel Counter. Their increase or decrease in the presence of the compounds of formula (I) is given in Table 1 below in relation to the blank.
(§3) The evaluations have the following meanings: • − decrease of luminescence compared to the blank value; • + measurable increase; • ++ at least 1.5-fold increase; • +++ at least 2-fold increase; • * represents C2C12 cells; and • ** represents P19 cells.

For data set [2], the system named is Atrial natriuretic factor (ANF) expression, P19 cells. Description: ANF test (ANF promoter luciferase reporter) in P19 cells. It is filed as cell-based, murine. Set-up: key to Evaluation (luminescence in relation to the blank): −: decrease of luminescence compared to the blank value; +: measurable increase; ++: at least 1.5-fold increase; +++: at least 2-fold increase. To be noted: for Evaluation (luminescence in relation to the blank) / fold induction at 1 µM: P19 cells (**), compound 1 μM in DMSO, 8 days culture, relative to DMSO blank; for fold induction at 1 µM: Mus musculus, 192 h, read-out: Evaluation (luminescence in relation to the blank).
Text: as §1, §2, §3
In general terms: A reporter such as luciferase makes a cellular process visible.

In the next data set the test system is zebrafish embryos. The following applies: literature (Peterson et al.); cited from earlier work.

Turning to `COc1ccc(Nc2nc(Cl)nc(NCCCO)n2)cc1` [(2), 3-[4-chloro-6-(4-methoxyphenylamino)-1,3,5-triazin-2-ylamino]propan-1-ol], the melting point lay in the range of 155 to 159 °C. The “Evaluation (luminescence in relation to the blank)” value (“Evaluation” below) in data set [1] is “++* (at least 1.5-fold increase)”. Also, the “efficiency in ANF test, stated in words” value in data set [1] (C2C12 cells, 1 μM) was “very good efficiency”.

On to `COC(=O)c1cccc(Nc2nc(Oc3ccccc3)nc(Oc3ccc(C#N)cc3)n2)c1` [(12), 3-{[4-(4-cyanophenoxy)-6-phenoxy-1,3,5-triazin-2-yl]amino}benzoic acid methyl ester], for which the melting point is 116.5 to 120 °C. In data set [2], the “Evaluation” value was “−**”.

Turning to `O=C(O)c1cccc(Nc2nc(Oc3ccccc3)nc(Oc3ccc(Cl)cc3)n2)c1` [(29), 3-{[4-(4-chlorophenoxy)-6-phenoxy-1,3,5-triazin-2-yl]amino}benzoic acid], the melting point lay in the range of 244 to 247 °C. For the same compound, the fold induction at 1 µM in data set [2] is at least 2.

In turn, `O=C(O)c1cccc(Nc2nc(Oc3ccccc3)nc(Oc3cccc(Cl)c3)n2)c1` [(30), 3-{[4-(3-chlorophenoxy)-6-phenoxy-1,3,5-triazin-2-yl]amino}benzoic acid] gave a melting point of 227 to 230 °C. Moreover, in data set [2], the fold induction at 1 µM is at least 1.5.

On to `O=C(O)c1cccc(Nc2nc(Oc3ccccc3)nc(Oc3ccccc3Cl)n2)c1` [(31), 3-{[4-(2-chlorophenoxy)-6-phenoxy-1,3,5-triazin-2-yl]amino}benzoic acid], for which the melting point is 249.5 to 251.5 °C. In data set [2], the fold induction at 1 µM is at least 1.5.

For `CC(C)(C)c1ccc(Oc2nc(Nc3cccc(C(=O)O)c3)nc(Oc3ccccc3)n2)cc1` [(32), 3-{[4-(4-t-butylphenoxy)-6-phenoxy-1,3,5-triazin-2-yl]amino}benzoic acid], the melting point is 245 to 247 °C. Besides, in data set [2], the “Evaluation” value is “+**”.

`COc1ccc(Oc2nc(Nc3cccc(C(=O)O)c3)nc(Oc3ccccc3)n2)cc1` [(33), 3-{[4-(4-methoxyphenoxy)-6-phenoxy-1,3,5-triazin-2-yl]amino}benzoic acid] displayed a melting point of 233 to 236.5 °C. The “Evaluation” value in data set [2] is “+**”.

As for `N#Cc1ccc(Oc2nc(Nc3cccc(C(=O)O)c3)nc(Oc3ccccc3)n2)cc1` [(34), 3-{[4-(4-cyanophenoxy)-6-phenoxy-1,3,5-triazin-2-yl]amino}benzoic acid], the melting point came out at 150 °C. Further, in data set [2], the “Evaluation” value is “+**”.

`O=C(O)c1cccc(Nc2nc(Oc3ccccc3)nc(Oc3cccc([N+](=O)[O-])c3)n2)c1` [(35), 3-{[4-(3-nitrophenoxy)-6-phenoxy-1,3,5-triazin-2-yl]amino}benzoic acid] returned a melting point of 225 to 228 °C. In data set [2], the fold induction at 1 µM was at least 1.5.

For `COc1cc(C=O)ccc1Oc1nc(Nc2cccc(C(=O)O)c2)nc(Oc2ccccc2)n1` [(36), 3-{[4-(4-formyl-2-methoxyphenoxy)-6-phenoxy-1,3,5-triazin-2-yl]-amino}benzoic acid], the melting point lay within 217.5 to 220 °C. In addition, the fold induction at 1 µM in data set [2] is at least 2. In addition, the “increased ANF expression (peak value)” value in data set [2] (P19 cells, 1 μM, relative to blank) is “more than threefold”.

In turn, `COc1ccc(Oc2nc(Nc3cccc(C(=O)O)c3)nc(Oc3ccc(C#N)cc3)n2)cc1` [(38), 3-{[4-(4-cyanophenoxy)-6-(4-methoxyphenoxy)-1,3,5-triazin-2-yl]-amino}benzoic acid] registered a melting point of 240.5 to 242.5 °C. Also, the fold induction at 1 µM in data set [2] was at least 1.5.

In the case of `OCc1ccc(Nc2nc(Oc3ccccc3)nc(Oc3ccccc3)n2)cc1` [(39), {4-[(4,6-diphenoxy-1,3,5-triazin-2-yl)amino]phenyl}methanol], the melting point lay within 152.5 to 154 °C. Besides, the fold induction at 1 µM in data set [2] was at least 2.

On to `OCc1cccc(Nc2nc(Oc3ccccc3)nc(Oc3ccccc3)n2)c1` [(40), {3-[(4,6-diphenoxy-1,3,5-triazin-2-yl)amino]phenyl}methanol], for which the melting point lay within 49 to 52 °C. The “Evaluation” value in data set [2] is recorded as “+**”.

The compound `OCc1cccc(Nc2nc(Oc3ccccc3)nc(Oc3ccc(Cl)cc3)n2)c1` [(41), {3-[(4-(4-chlorophenoxy)-6-phenoxy-1,3,5-triazin-2-yl)amino]phenyl}-methanol] had a melting point of 110.5 to 114 °C. Moreover, the “Evaluation” value in data set [2] was “−** and (41) (p-chloro): −”.

In the case of `OCc1cccc(Nc2nc(Oc3ccccc3)nc(Oc3ccccc3Cl)n2)c1` [(43), {3-[(4-(2-chlorophenoxy)-6-phenoxy-1,3,5-triazin-2-yl)amino]phenyl}-methanol], the melting point lay in the range of 52 to 54 °C. For the same compound, in data set [2], the “Evaluation” value is “−** and (43) (o-chloro): −”.

`CC(C)(C)c1ccc(Oc2nc(Nc3cccc(CO)c3)nc(Oc3ccccc3)n2)cc1` [(44), {3-[(4-(4-t-butylphenoxy)-6-phenoxy-1,3,5-triazin-2-yl)amino]phenyl}-methanol] came in with a melting point of 47 to 50 °C. For the same compound, the fold induction at 1 µM in data set [2] is at least 2.

For the compound `COc1ccc(Nc2nc(Cl)nc(NCCO)n2)cc1` [Compound (1), 2-[4-chloro-6-(4-methoxyphenylamino)-1,3,5-triazin-2-ylamino]ethanol], the melting point was in the range of 169 to 173 °C. Moreover, the “Evaluation” value in data set [1] is given as “+*”.

For the compound `O=C(O)c1cccc(Nc2nc(Oc3ccccc3)nc(Oc3ccccc3)n2)c1` [DTAB, 3-[(4.6-diphenoxy-1,3,5-triazin-2-yl)amino]benzoic acid, reference compound], the “Evaluation” value in data set [1] and in data set [2] was “−* −**” in each case. Besides, the “ANF expression level / efficiency, stated in words” value in data set [2] (ANF test, P19 cells (DTAB and summary statements also cover C2C12)) is given as “substantially no changes in the ANF expression level were found, even a slight decrease”. Also, the “influence on embryo development” value with zebrafish embryos is “substantial influence on the formation of the anterior-posterior (A-P) axis and organ development in embryos”.

One may read the melting point as the temperature, or range, at which the solid turns liquid.

The values above are taken from patent publication US9611457B2, “Triazine derivatives as differentiation catalysts” (TECHNISCHE UNIVERSITAET WIEN, priority 2011, dated 2017).
